Our source for the IC50 values is PubChem BioAssay AID651592 (Sanford-Burnham Center for Chemical Genomics, 2012).

A short description of assay [1]: inhibitors of NFkB activation in CF airway cells, SAR follow-up, KKLEB cells, panel, IL8 HTRF, NFkB-GFP (AID 651592).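 Also: immortalized cystic fibrosis airway epithelial KKLEB cells with an NF-kB GFP reporter.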 Particulars: PAF/TNFa-induced NFkB-GFP / IL8 HTRF, CF-PAF assay.
Assay [2] addresses Interleukin-8 (Homo sapiens) (UniProt P10145). The description is as above. As to conditions: PAF/TNFa-induced NFkB-GFP / IL8 HTRF. On the technique in general: TR-FRET usually uses a lanthanide donor and a delayed reading to cut background.
Another assay deals with IL8. The assay is described as above. Particulars: PAF/TNFa-induced NFkB-GFP / IL8 HTRF, mean of runs, mean IC50 across panel replicates.
Where [3] appears, read: mean of runs, mean IC50 across panel replicates.

Chain of Interleukin-8 (Homo sapiens) (P10145 whole entry, looked up): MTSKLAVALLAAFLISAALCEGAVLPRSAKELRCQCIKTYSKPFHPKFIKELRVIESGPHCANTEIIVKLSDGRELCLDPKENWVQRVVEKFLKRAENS

As for `O=C(Nc1ccc(N2CCN(C(=O)c3ccccc3F)CC2)cc1)c1cccc(Br)c1`, the IC50 in assay [1] (setting [3]) is 42.6 µM; in assay [1] (run 1), 18.1 µM; in assay [1] (run 2), 18.3 µM; in assay [1] (run 3) it was 21.5 µM; in assay [1] (run 4), more than 66 µM; in assay [1] (run 5) it was more than 66 µM. Besides, the IC50 in assay [1] (run 6) is more than 66 µM; in assay [2] (IL8, PAF-induced, run 1) it was more than 66 µM; in assay [2] (IL8, PAF-induced, run 2), more than 66 µM; in assay [2] (IL8, PAF-induced, run 3), more than 66 µM; in assay [2] (IL8, PAF-induced, run 4), more than 66 µM; in assay [2] (IL8, PAF-induced, run 5) it was more than 66 µM. The 50% inhibitory concentration (IC50) in assay [2] (IL8, PAF-induced, run 6) was more than 66 µM; in assay [2] (IL8, TNFa-induced, run 1), more than 66 µM; in assay [2] (IL8, TNFa-induced, run 2), more than 66 µM; in assay [2] (IL8, TNFa-induced, run 3), more than 66 µM; in assay [2] (IL8, TNFa-induced, run 4), more than 66 µM; in assay [2] (IL8, TNFa-induced, run 5) it was more than 66 µM. Besides, the IC50 in assay [2] (IL8, TNFa-induced, run 6) was 6.25 µM; with IL8 (PAF-induced), more than 66 µM; with IL8 (TNFa-induced), 56 µM.

For the compound `O=C(Nc1ccc(N2CCN(C(=O)c3ccccc3Cl)CC2)cc1)c1cc(Br)cc(Br)c1`, the concentration for half-maximal inhibition (IC50) in assay [1] (setting [3]), in assay [1] (run 1), in assay [1] (run 2), in assay [1] (run 3), in assay [1] (run 4) and in assay [1] (run 5) was more than 66 µM throughout. For the same compound, the half-maximal inhibitory concentration (IC50) in assay [1] (run 6) is more than 66 µM; in assay [2] (IL8, PAF-induced, run 1) it was more than 66 µM; in assay [2] (IL8, PAF-induced, run 2) it was more than 66 µM; in assay [2] (IL8, PAF-induced, run 3), more than 66 µM; in assay [2] (IL8, PAF-induced, run 4), more than 66 µM; in assay [2] (IL8, PAF-induced, run 5), more than 66 µM. For the same compound, the IC50 is more than 66 µM in assay [2] (IL8, PAF-induced, run 6); more than 66 µM in assay [2] (IL8, TNFa-induced, run 1); more than 66 µM in assay [2] (IL8, TNFa-induced, run 2); more than 66 µM in assay [2] (IL8, TNFa-induced, run 3); more than 66 µM in assay [2] (IL8, TNFa-induced, run 4); more than 66 µM in assay [2] (IL8, TNFa-induced, run 5). The IC50 was more than 66 µM in assay [2] (IL8, TNFa-induced, run 6); more than 66 µM with IL8 (PAF-induced); more than 66 µM in the assay with IL8 (TNFa-induced).

For the compound `O=C(Nc1ccc(N2CCN(C(=O)c3ccccc3Cl)CC2)cc1)c1ccncc1`, the 50% inhibitory concentration (IC50) came to 11.8 µM in assay [1] (setting [3]); 7.29 µM in assay [1] (run 1); 8.71 µM in assay [1] (run 2); 9.34 µM in assay [1] (run 3); 5.23 µM in assay [1] (run 4); 11.3 µM in assay [1] (run 5). Also, the IC50 in assay [1] (run 6) is 29 µM; in assay [2] (IL8, PAF-induced, run 1), more than 66 µM; in assay [2] (IL8, PAF-induced, run 2), more than 66 µM; in assay [2] (IL8, PAF-induced, run 3), more than 66 µM; in assay [2] (IL8, PAF-induced, run 4) it was 1.15 µM; in assay [2] (IL8, PAF-induced, run 5), 3.67 µM. The IC50 in assay [2] (IL8, PAF-induced, run 6) was 10 µM; in assay [2] (IL8, TNFa-induced, run 1), more than 66 µM; in assay [2] (IL8, TNFa-induced, run 2), more than 66 µM; in assay [2] (IL8, TNFa-induced, run 3) it was 2.69 µM; in assay [2] (IL8, TNFa-induced, run 4) it was more than 66 µM; in assay [2] (IL8, TNFa-induced, run 5), more than 66 µM. The half-maximal inhibitory concentration (IC50) in assay [2] (IL8, TNFa-induced, run 6) was more than 66 µM; in the assay on IL8 (PAF-induced) it was 35.5 µM; in the assay with IL8 (TNFa-induced) it was 55.5 µM.

On to `O=C(Nc1ccc(N2CCN(C(=O)c3ccccc3)CC2)cc1)c1ccccn1`, for which the IC50 in assay [1] (setting [3]), in assay [1] (run 1), in assay [1] (run 2), in assay [1] (run 3), in assay [1] (run 4) and in assay [1] (run 5) was more than 66 µM throughout. Also, the IC50 is more than 66 µM in assay [1] (run 6); more than 66 µM in assay [2] (IL8, PAF-induced, run 1); more than 66 µM in assay [2] (IL8, PAF-induced, run 2); more than 66 µM in assay [2] (IL8, PAF-induced, run 3); more than 66 µM in assay [2] (IL8, PAF-induced, run 4); more than 66 µM in assay [2] (IL8, PAF-induced, run 5). Moreover, the IC50 in assay [2] (IL8, PAF-induced, run 6) was more than 66 µM; in assay [2] (IL8, TNFa-induced, run 1) it was more than 66 µM; in assay [2] (IL8, TNFa-induced, run 2), more than 66 µM; in assay [2] (IL8, TNFa-induced, run 3) it was more than 66 µM; in assay [2] (IL8, TNFa-induced, run 4), more than 66 µM; in assay [2] (IL8, TNFa-induced, run 5) it was more than 66 µM. Further, the IC50 was more than 66 µM in assay [2] (IL8, TNFa-induced, run 6); more than 66 µM in the assay on IL8 (PAF-induced); more than 66 µM with IL8 (TNFa-induced).

As for `O=C(Nc1ccc(N2CCN(C(=O)c3ccccc3Cl)CC2)cc1)c1cccnc1`, the IC50 in assay [1] (setting [3]) was 25.3 µM; in assay [1] (run 1), 3.68 µM; in assay [1] (run 2), 4.18 µM; in assay [1] (run 3), 4.81 µM; in assay [1] (run 4), more than 66 µM; in assay [1] (run 5), more than 66 µM. Further, the concentration for half-maximal inhibition (IC50) in assay [1] (run 6) is 7.26 µM; in assay [2] (IL8, PAF-induced, run 1) it was more than 66 µM; in assay [2] (IL8, PAF-induced, run 2) it was more than 66 µM; in assay [2] (IL8, PAF-induced, run 3), more than 66 µM; in assay [2] (IL8, PAF-induced, run 4) it was more than 66 µM; in assay [2] (IL8, PAF-induced, run 5), more than 66 µM. Besides, the IC50 was more than 66 µM in assay [2] (IL8, PAF-induced, run 6); more than 66 µM in assay [2] (IL8, TNFa-induced, run 1); more than 66 µM in assay [2] (IL8, TNFa-induced, run 2); more than 66 µM in assay [2] (IL8, TNFa-induced, run 3); more than 66 µM in assay [2] (IL8, TNFa-induced, run 4); more than 66 µM in assay [2] (IL8, TNFa-induced, run 5). Moreover, the IC50 was more than 66 µM in assay [2] (IL8, TNFa-induced, run 6); more than 66 µM with IL8 (PAF-induced); more than 66 µM in the assay with IL8 (TNFa-induced).

As usually defined, the IC50 is the concentration at which inhibition is half-maximal. A high value points to a need for much substance.
